According to patent US20260263429A1, “INHIBITORS OF CA 2+/CALMODULIN-DEPENDENT PROTEIN KINASE II (CAMKII) THAT DO NOT INHIBIT LONG-TERM POTENTIATION (LTP) INDUCTION AND THERAPEUTIC USES THEREOF” (The Regents of the University of Colorado, A Body Corporate, priority 2023, published 2026):
Where two headings read alike, the source gives them in different places.

What was measured:
[1] = system: CaMKII movement to excitatory synapses; experiment: cLTP-induced CaMKII movement to excitatory synapses in the presence of soluble oligomeric Aβ; assay type: cell-based; conditions: 0.5 μM Aβ, 45 minutes prior to cLTP
purified CaMKIIα [2] = molecular target: T1, purified CaMKIIα (Homo sapiens, UniProt Q9UQM7); experiment: In vitro kinase reactions with purified CaMKIIα (GluA1 S831, T286, GluN2B S1303 phosphorylation); assay type: biochemical; parameters: made in house; host or cells: baculovirus/Sf9 (CaMKIIα); BL21 bacteria (CaM); conditions: GST-GluA1 S831 phosphorylation, 30° C., half-maximal response, four experiments; read-out: Km value of ATP (to activate CaMKII)
Experimental: (§1) In a series of exemplary methods, an in vitro kinase assay was used where purified CaMKIIα is incubated at 30° C. with GST-GluA1 alongside ATP. CaMKIIα normally phosphorylates S831 on the GluA1 subunit and this phosphorylation can be measured as a readout of CaMKIIα enzymatic activity (see e.g., FIG. 8B). […] In another exemplary method, binding of purified CaMKIIα to immobilized GST-GluN2B-c was induced by Ca^2+/CaM in the presence of a vehicle (none), 4 mM ADP or with […] AS105. […] At the same time, two exemplary methods were performed to observe ionomycin or chemical LTP (cLTP) induced co-localization of CaMKII and GluN2B either in HEK293 cells co-expressing GFP-CaMKII and mCherry-2BC or dissociated rat hippocampal cultures expressing GFP-CaMKII and mCh-PSD95 intrabody. HEK293 cells, incubating with vehicle or 10 μM AS105, were subjected to ionomycin. Hippocampal cultures, also incubating with either vehicle or 10 μM AS105, were treated with a chemical LTP (cLTP) stimulus (e.g., 100 μM glutamate, 10 μM glycine for 45 seconds). Confocal microscopy images were taken before and after each stimulus.
Therefore, in another exemplary method, the ability of AS283 to selective inhibit CAMKII enzymatic activity without interfering with its binding to GluN2B was tested. In a first method, in vitro kinase reactions were performed at 30° C. in 1 mM ATP measuring purified CaMKIIα phosphorylation of GST-GluA1 S831 with varying concentrations of AS283 (0.41-10 μM).
(§2) One possible mechanism by which AS283 could enhance GluN2B binding more than ATP is by suppressing CaMKII-mediated phosphorylation of GluN2B at S1303, as this phosphorylation within the CaMKII binding site on GluN2B reduces CaMKII binding.
In vitro phosphorylation assays. CaMKII-mediated phosphorylation of GluA1 S831 was measured by in vitro kinase reaction with purified GST-GluA1 c-terminal tail. Reactions contained 40 nM CaMKII (or water for negative controls), 1 μM GST-GluA1, 50 mM PIPES pH 7.1, 2 mM CaCl2), 10 mM MgCl2, 1 μM calmodulin, 1-4 mM ATP, and 1 PM of okadaic acid. Reactions were done at 30° C. for 20 s; reactions were stopped by adding SDS-loading buffer and incubation in a boiling water bath for 5 min. GST, phospho-S831, CaMKII, phospho-T286, or phospho-S1303 were detected in the samples by immunoblot analysis.
Km and Ki determination. The inhibition constant Ki was calculated using the Cheng-Prusoff equation for competitive inhibition: Ki=IC50/(1+[ATP]/Km).

purified CaMKIIα [3] = molecular target: T1, purified CaMKIIα; conditions: read-out: previously published Km values of CaMKII for ATP; cited from earlier work
[4] = system: CaMKIIα binding to GST-GluN2B-c; conditions: 4 mM ADP or AS105
Experimental: as §1, §2
Bound CaMKII was measured via immunoblot.

## C[C@@H](c1ccc(-c2ccccc2)c(F)c1)c1cc(/N=C(\N)N2CCOCC2)on1 [rimacalib]
[1]; inhibitor 10 μM
  rescue of Aβ-blocked cLTP-induced movement of CaMKII to the synapses: rescued

## Nc1ncnc2c1ncn2[C@@H]1O[C@H](COP(=O)(O)OP(=O)(O)OP(=O)(O)O)[C@@H](O)[C@H]1O [ATP]
Purified CaMKIIα [2]
  Km: 33.3 µM
Purified CaMKIIα [3]
  Km: 8 to 127 µM

## Nc1ncnc2c1ncn2[C@@H]1O[C@H](COP(=O)(O)OP(=O)(O)O)[C@@H](O)[C@H]1O [ADP]
[4]
  Ca2+/CaM-induced binding of CaMKIIα to immobilized GST-GluN2B-c versus vehicle (none): induced binding

## Aβ: Amyloid beta (1-42) peptide purchased from Anaspec, soluble oligomeric preparation
[1]
  effect of Aβ on cLTP-induced movement of CaMKII to the synapses: blocks cLTP induced movement of CaMKII to the synapses
